Among the test systems are DU-145 prostate; SK-MEL-5 melanoma; SK-MEL-28 melanoma; LOX IMVI melanoma; MDA-MB-231 breast; T-47D breast; OVCAR-8 ovarian; SNB-19 CNS; IGROV1 ovarian; SK-MEL-2 melanoma.
Common to all, as to experiment: DTP human tumour cell line panel, 48 h

“And” between values parts separate entries of the source, which are not always exact repeats. Identical values can stand only once.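 48-hour exposure; five concentrations; linearly interpolated endpoints. GI50 = concentration required for 50% inhibition of growth. TGI: concentration producing complete growth inhibition.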

Regarding `CC(N)C(Cc1ccc(Cl)cc1)c1ccc(Cl)cc1` (stereo not given), the GI50 was 12.5 µM in the assay on DU-145 prostate; 12.4 µM in the assay on SK-MEL-5 melanoma; 3.86 µM in the assay on SK-MEL-28 melanoma; 5.56 µM with LOX IMVI melanoma; 4.26 µM in the assay with MDA-MB-231 breast; 10.7 µM in the assay on T-47D breast. Moreover, the GI50 was 20.4 µM in the assay on OVCAR-8 ovarian, 14.1 µM in the assay with SNB-19 CNS, 4.89 µM in the assay with IGROV1 ovarian and 13 µM in the assay on SK-MEL-2 melanoma. Besides, the TGI turned out to be 25.7 µM with DU-145 prostate; 25.1 µM with SK-MEL-5 melanoma; 15.9 µM in the assay with SK-MEL-28 melanoma; 18.9 µM in the assay on LOX IMVI melanoma; 16.8 µM with MDA-MB-231 breast; 26 µM with T-47D breast. The TGI worked out at 52.8 µM with OVCAR-8 ovarian, 29.5 µM in the assay on SNB-19 CNS, 18.7 µM with IGROV1 ovarian and 27 µM with SK-MEL-2 melanoma.
With `CCN(CCCN(C)C)Cc1cc(I)cc(C)c1O`, the GI50 in the assay with DU-145 prostate is 36.8 µM; in the assay on SK-MEL-5 melanoma it was 17.6 µM; in the assay with SK-MEL-28 melanoma, 18 µM; in the assay with LOX IMVI melanoma it was 18.3 µM; in the assay on MDA-MB-231 breast it was 26.8 µM; with T-47D breast, 21.3 µM. The GI50 with OVCAR-8 ovarian was 34.2 µM; with SNB-19 CNS, 26.9 µM; in the assay with IGROV1 ovarian it was 19.8 µM; in the assay on SK-MEL-2 melanoma it was 19.4 µM. For the same compound, the TGI with DU-145 prostate was above 100 µM; in the assay on SK-MEL-5 melanoma, 31.5 µM; in the assay on SK-MEL-28 melanoma it was 36.3 µM; with LOX IMVI melanoma it was 34.6 µM; in the assay on MDA-MB-231 breast, 91 µM; in the assay with T-47D breast, 48.5 µM. Moreover, the TGI in the assay on OVCAR-8 ovarian is above 100 µM; in the assay on SNB-19 CNS, 63.1 µM; with IGROV1 ovarian it was 45.4 µM; with SK-MEL-2 melanoma, 37.4 µM.
Turning to `COC[C@@H](N=C1NC(=O)/C(=C/c2ccc3ncccc3c2)S1)c1ccccc1`, the GI50 in the assay on DU-145 prostate is 12 µM; in the assay on SK-MEL-5 melanoma, 7.51 µM; in the assay with SK-MEL-28 melanoma, 18.8 µM; in the assay with LOX IMVI melanoma, 9.73 µM; in the assay on MDA-MB-231 breast it was 12.7 µM; in the assay with T-47D breast, 8.43 µM. Moreover, the GI50 was 10.2 µM in the assay on OVCAR-8 ovarian, 8.82 µM in the assay on SNB-19 CNS, 12.9 µM in the assay with IGROV1 ovarian and 8.19 µM in the assay with SK-MEL-2 melanoma. In addition, the TGI is above 25 µM in the assay with DU-145 prostate; 24.9 µM in the assay with SK-MEL-5 melanoma; above 25 µM in the assay on SK-MEL-28 melanoma; above 25 µM in the assay with LOX IMVI melanoma; above 25 µM in the assay on MDA-MB-231 breast; above 25 µM in the assay with T-47D breast. Further, the TGI with OVCAR-8 ovarian is above 25 µM; with SNB-19 CNS it was above 25 µM; in the assay with IGROV1 ovarian it was above 25 µM; in the assay on SK-MEL-2 melanoma, 17.2 µM.
On to `COc1cc(Nc2nc3cc(N)cc(N)c3nc2-c2ccccc2)cc(OC)c1OC`, for which the GI50 in the assay with DU-145 prostate was 21.9 µM; in the assay on SK-MEL-5 melanoma, 13 µM; in the assay on SK-MEL-28 melanoma, 1.45 µM; in the assay on LOX IMVI melanoma, 18.5 µM; with MDA-MB-231 breast, 11.1 µM; in the assay with T-47D breast it was 6.07 µM. Besides, the GI50 with OVCAR-8 ovarian was 15.3 µM; in the assay with SNB-19 CNS, 33.1 µM; with IGROV1 ovarian, 15.7 µM; in the assay with SK-MEL-2 melanoma, 15.9 µM. For the same compound, the TGI in the assay with DU-145 prostate stood at 74 µM; with SK-MEL-5 melanoma, 27.8 µM; in the assay on SK-MEL-28 melanoma, 20.7 µM; with LOX IMVI melanoma, 49 µM; with MDA-MB-231 breast, 29.2 µM; with T-47D breast, 27.3 µM. The TGI in the assay on OVCAR-8 ovarian was 34.9 µM; in the assay with SNB-19 CNS, above 100 µM; with IGROV1 ovarian it was 58.2 µM; in the assay with SK-MEL-2 melanoma it was 35.2 µM.
Consider `OCCN1CCN(CCCN2c3ccccc3Sc3ccc(Cl)cc32)CC1`, for which the GI50 was 5.04 µM with DU-145 prostate; 1.65 µM in the assay with SK-MEL-5 melanoma; 1.84 µM with SK-MEL-28 melanoma; 1.59 µM in the assay with LOX IMVI melanoma; 1.99 µM in the assay with MDA-MB-231 breast; 1.91 µM in the assay on T-47D breast. Also, the GI50 in the assay with OVCAR-8 ovarian was 2.02 µM; with SNB-19 CNS, 2.3 µM; in the assay on IGROV1 ovarian, 3.12 µM; in the assay with SK-MEL-2 melanoma, 2.03 µM. Moreover, the TGI was determined as 16.2 µM with DU-145 prostate; 3 µM in the assay on SK-MEL-5 melanoma; 3.31 µM with SK-MEL-28 melanoma; 3.09 µM with LOX IMVI melanoma; 4.78 µM with MDA-MB-231 breast; 5.56 µM with T-47D breast. The TGI in the assay on OVCAR-8 ovarian stood at 4.7 µM; in the assay with SNB-19 CNS, 5.7 µM; in the assay with IGROV1 ovarian, 12.2 µM; with SK-MEL-2 melanoma, 4.04 µM.
For the compound `CN(c1ncccc1CNc1nc(Nc2ccc3c(c2)CC(=O)N3)ncc1C(F)(F)F)S(C)(=O)=O`, the GI50 in the assay on DU-145 prostate is 2.88 µM and 2.74 µM; with SK-MEL-5 melanoma, 2.57 µM and 2.28 µM; in the assay with SK-MEL-28 melanoma, 2.07 µM and 2.92 µM; in the assay on LOX IMVI melanoma, 1.31 µM and 1.68 µM; in the assay on MDA-MB-231 breast, 2.01 µM and 2.33 µM; with T-47D breast, 3.22 µM and 2.72 µM. Also, the GI50 with OVCAR-8 ovarian is 2.41 µM and 3.38 µM; in the assay on SNB-19 CNS, 2.75 µM and 2.89 µM; with IGROV1 ovarian it was 2.42 µM and 1.8 µM; in the assay with SK-MEL-2 melanoma, 1.57 µM and 1.85 µM. In addition, the total growth inhibition concentration (TGI) with DU-145 prostate is above 100 µM; in the assay with SK-MEL-5 melanoma, 7.44 µM and 5.85 µM; in the assay on SK-MEL-28 melanoma, 6.58 µM and > 10 µM; with LOX IMVI melanoma it was 17.4 µM and 9.4 µM; with MDA-MB-231 breast it was above 100 µM; with T-47D breast it was > 33 µM and 9.35 µM. In addition, the TGI was above 64.6 µM in the assay on OVCAR-8 ovarian; above 100 µM with SNB-19 CNS; above 100 µM in the assay with IGROV1 ovarian; 3.69 µM and 4.8 µM with SK-MEL-2 melanoma.

As usually defined, the GI50 is the concentration giving 50% growth inhibition. The TGI is the concentration giving total growth inhibition. Read a low TGI as more potent growth arrest.

The values are drawn from PubChem BioAssay (NCI).
